Test results taken from the supplement of paper PMC10307832.

How the values were obtained:
Test in all cases: relative viability (nuclei count vs DMSO), 5 days (fraction); higher = more cells survive
Bemcentinib + Decitabine = compound: Nc1nc(Nc2ccc3c(c2)CC[C@@H](N2CCCC2)CC3)nn1-c1cc2c(nn1)-c1ccccc1CCC2 [Bemcentinib] + Nc1ncn([C@H]2C[C@H](O)[C@@H](CO)O2)c(=O)n1 [Decitabine] (partner 2 µM)
Outline: (§1)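 Relative viability is defined as nuclei in treated wells over nuclei in vehicle wells. Duplicate plates were run and medians reported. Lung cancer cell lines in 1536-well plates were dosed by pin tool one day after seeding, with one drug or with a fixed anchor-drug dose plus five library-drug doses (not always all listed) in √10 steps, and nuclei were counted after 5 days.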

[1] = compound: CC1=CC=C(C=C1)C(=O)CN2C3=C(CCCC3)SC2=N [Pifithrin_alpha] + CS(=O)(=O)N1CCN(Cc2cc3nc(-c4cccc5[nH]ncc45)nc(N4CCOCC4)c3s2)CC1 [Pictilisib] (partner 1 µM)
Outline: as §1

Bemcentinib + Pictilisib = compound: Nc1nc(Nc2ccc3c(c2)CC[C@@H](N2CCCC2)CC3)nn1-c1cc2c(nn1)-c1ccccc1CCC2 [Bemcentinib] + CS(=O)(=O)N1CCN(Cc2cc3nc(-c4cccc5[nH]ncc45)nc(N4CCOCC4)c3s2)CC1 [Pictilisib] (partner 1 µM)
Outline: as §1

[2] = compound: CC1=CC=C(C=C1)C(=O)CN2C3=C(CCCC3)SC2=N [Pifithrin_alpha] + CS(=O)(=O)CCNCc1ccc(-c2ccc3ncnc(Nc4ccc(OCc5cccc(F)c5)c(Cl)c4)c3c2)o1 [Lapatinib] (partner 2 µM)
Outline: as §1

Cell Line | relative viability (Bemcentinib + Decitabine; first compound 0.04 µM) | relative viability (Bemcentinib + Decitabine; first compound 0.1265 µM) | relative viability (Bemcentinib + Decitabine; first compound 0.4 µM) | relative viability (Bemcentinib + Decitabine; first compound 1.265 µM) | relative viability (Bemcentinib + Decitabine; first compound 4 µM) | relative viability ([1]; first compound 1 µM) | relative viability ([1]; first compound 3.162 µM) | relative viability ([1]; first compound 10 µM) | relative viability ([1]; first compound 31.62 µM) | relative viability ([1]; first compound 100 µM) | relative viability (Bemcentinib + Pictilisib; first compound 0.04 µM) | relative viability (Bemcentinib + Pictilisib; first compound 0.1265 µM) | relative viability (Bemcentinib + Pictilisib; first compound 0.4 µM) | relative viability (Bemcentinib + Pictilisib; first compound 1.265 µM) | relative viability (Bemcentinib + Pictilisib; first compound 4 µM) | relative viability ([2]; first compound 1 µM) | relative viability ([2]; first compound 3.162 µM) | relative viability ([2]; first compound 10 µM) | relative viability ([2]; first compound 31.62 µM) | relative viability ([2]; first compound 100 µM)
201T | 0.827 | 0.903 | 0.893 | 0.979 | 0.868 | 0.603 | 0.525 | 0.52 | 0.53 | 0.551 | 0.689 | 0.694 | 0.763 | 0.712 | 0.748 | 0.959 | 0.728 | 0.744 | 0.83 | 0.689
A549 | 0.248 | 0.247 | 0.319 | 0.296 | 0.26 | 0.703 | 0.586 | 0.435 | 0.434 | 0.342 | 0.524 | 0.445 | 0.579 | 0.534 | 0.494 | 1.12 | 1 | 0.838 | 0.766 | 0.739
A-427 | 0.569 | 0.525 | 0.502 | 0.57 | 0.559 | 0.722 | 0.629 | 0.666 | 0.522 | 0.657 | – | 0.752 | 0.723 | 0.635 | 0.663 | 0.981 | 0.877 | 0.99 | 0.845 | 1.18
ABC-1 | 0.899 | 1.23 | 1.03 | 0.835 | 1.14 | 0.273 | 0.745 | 0.735 | 0.429 | 0.437 | 0.688 | 0.736 | 0.731 | 0.77 | 0.955 | 1.36 | 1.24 | 0.923 | – | 1.36
BEN | 0.696 | 0.784 | 0.762 | 0.629 | 0.677 | 0.445 | 0.576 | 0.64 | 0.618 | 0.543 | 0.551 | 0.6 | 0.631 | 0.564 | 0.591 | 0.522 | 0.769 | 0.686 | 0.733 | 0.873
CAL-12T | – | – | – | – | – | 0.415 | 0.385 | 0.348 | 0.347 | 0.331 | 0.302 | 0.569 | 0.532 | 0.347 | 0.364 | 0.624 | 0.614 | 0.696 | 0.441 | 0.447
COR-L23 | 0.465 | 0.467 | 0.481 | 0.472 | 0.456 | 0.736 | 0.75 | 0.731 | – | 0.695 | 0.843 | 0.978 | 1.03 | 0.953 | 0.927 | 1.05 | 1.28 | 1.06 | – | 0.926
COR-L 105 | 0.593 | 0.721 | 0.678 | 0.67 | 0.667 | 0.324 | 0.377 | 0.415 | 0.33 | 0.458 | 0.292 | 0.43 | 0.408 | 0.378 | 0.387 | 0.343 | 0.395 | 0.336 | 0.321 | 0.533
Calu-6 | – | – | – | – | – | 1 | 0.907 | 0.816 | 0.546 | 0.644 | 0.917 | 1.15 | 1.1 | 0.953 | 1.03 | 1.02 | 1.03 | 0.986 | 0.675 | 1.07
ChaGo-K-1 | 0.566 | 0.537 | 0.538 | 0.536 | 0.556 | 0.431 | 0.653 | 0.631 | 0.473 | 0.559 | 0.579 | 0.733 | 0.795 | 0.426 | 0.434 | – | – | – | – | –
EBC-1 | – | – | – | – | – | 0.261 | 0.224 | 0.237 | 0.198 | 0.214 | 0.391 | 0.307 | 0.39 | 0.399 | 0.353 | 0.21 | 0.225 | 0.192 | 0.213 | 0.165
EKVX | 0.325 | 0.345 | 0.292 | 0.345 | 0.39 | 0.328 | 0.283 | 0.281 | 0.235 | 0.214 | 0.404 | 0.474 | 0.503 | 0.436 | 0.451 | 0.167 | 0.16 | 0.139 | 0.181 | 0.14
EMC-BAC-2 | 0.955 | 1 | 1.12 | 0.997 | 1.01 | 0.511 | 0.566 | 0.55 | 0.456 | 0.545 | 0.544 | 0.561 | 0.529 | 0.548 | 0.569 | 0.87 | 0.905 | 0.864 | 0.623 | 0.928
EPLC-272H | 0.373 | 0.361 | 0.387 | 0.397 | 0.399 | – | 0.319 | 0.35 | 0.255 | 0.248 | – | 0.356 | 0.343 | 0.294 | 0.316 | – | 0.8 | 1.05 | 0.629 | 0.739
H3255 | – | 0.574 | 0.681 | 0.648 | 0.68 | 0.432 | 0.612 | 0.497 | 0.35 | 0.491 | 0.463 | 0.488 | 0.448 | 0.465 | 0.557 | 0.13 | 0.208 | 0.267 | 0.244 | 0.192
HARA | 0.578 | 0.651 | 0.561 | 0.556 | 0.518 | 0.335 | 0.275 | 0.4 | 0.234 | 0.251 | 0.407 | 0.423 | 0.338 | 0.392 | 0.371 | 0.675 | 0.625 | 0.759 | 0.589 | 0.478
HCC-15 | 0.641 | 0.696 | 0.71 | 0.646 | 0.661 | 0.691 | 0.754 | 0.673 | 0.458 | 0.715 | 0.747 | 0.767 | 0.822 | 0.738 | 0.781 | 0.636 | 1.05 | 0.734 | 0.666 | 0.845
